Results published in doi:10.1101/2023.10.20.563248v1 (biorxiv, 2023).

What was measured:
Details in all cases: 1 µM; inhibitor
ZAP70 = ZAP70 (Homo sapiens, UniProt P43403)
ROCK2 = ROCK2 (Homo sapiens, UniProt O75116)
PRKG2 = PRKG2 (Homo sapiens, UniProt Q13237)
MARK2 = MARK2 (Homo sapiens, UniProt Q7KZI7)
SRPK2 = SRPK2 (Homo sapiens, UniProt P78362)
TSK2 = TSK2 (Homo sapiens, UniProt Q96PF2)
CHK1 = CHK1 (Homo sapiens, UniProt O14757)
CDK5 = CDK5 (Homo sapiens, UniProt Q00535)
TGFBR2 = TGFBR2 (Homo sapiens, UniProt P37173)
PDK1 = PDK1 (Homo sapiens, UniProt O15530)
ARK5 = ARK5 (Homo sapiens, UniProt O60285)
NEK2 = NEK2 (Homo sapiens, UniProt P51955)
CK1g3 = CK1g3 (Homo sapiens, UniProt Q9Y6M4)
DNAPK = DNAPK (Homo sapiens, UniProt P78527)
FGFR2 = FGFR2 (Homo sapiens, UniProt P21802)
ASK1 = ASK1 (Homo sapiens, UniProt Q99683)
TTK = TTK (Homo sapiens, UniProt P33981)
MST4 = MST4 (Homo sapiens, UniProt Q9P289)
DYRK1A = DYRK1A (Homo sapiens, UniProt Q13627)
EPHA5 = EPHA5 (Homo sapiens, UniProt P54756)
DAPK3 = DAPK3 (Homo sapiens, UniProt O43293)
SNARK = SNARK (Homo sapiens, UniProt Q9H093)
WNK1 = WNK1 (Homo sapiens, UniProt Q9H4A3)
DYRK2 = DYRK2 (Homo sapiens, UniProt Q92630)
PRKG1 = PRKG1 (Homo sapiens, UniProt Q13976)
NDR2 = NDR2 (Homo sapiens, UniProt Q9Y2H1)
YES = YES (Homo sapiens, UniProt P07947)
NEK6 = NEK6 (Homo sapiens, UniProt Q9HC98)
CDK6 = CDK6 (Homo sapiens, UniProt Q00534)
JAK3 = JAK3 (Homo sapiens, UniProt P52333)
STK25 = STK25 (Homo sapiens, UniProt O00506)

Sequence of ASK1 (Q99683 whole entry): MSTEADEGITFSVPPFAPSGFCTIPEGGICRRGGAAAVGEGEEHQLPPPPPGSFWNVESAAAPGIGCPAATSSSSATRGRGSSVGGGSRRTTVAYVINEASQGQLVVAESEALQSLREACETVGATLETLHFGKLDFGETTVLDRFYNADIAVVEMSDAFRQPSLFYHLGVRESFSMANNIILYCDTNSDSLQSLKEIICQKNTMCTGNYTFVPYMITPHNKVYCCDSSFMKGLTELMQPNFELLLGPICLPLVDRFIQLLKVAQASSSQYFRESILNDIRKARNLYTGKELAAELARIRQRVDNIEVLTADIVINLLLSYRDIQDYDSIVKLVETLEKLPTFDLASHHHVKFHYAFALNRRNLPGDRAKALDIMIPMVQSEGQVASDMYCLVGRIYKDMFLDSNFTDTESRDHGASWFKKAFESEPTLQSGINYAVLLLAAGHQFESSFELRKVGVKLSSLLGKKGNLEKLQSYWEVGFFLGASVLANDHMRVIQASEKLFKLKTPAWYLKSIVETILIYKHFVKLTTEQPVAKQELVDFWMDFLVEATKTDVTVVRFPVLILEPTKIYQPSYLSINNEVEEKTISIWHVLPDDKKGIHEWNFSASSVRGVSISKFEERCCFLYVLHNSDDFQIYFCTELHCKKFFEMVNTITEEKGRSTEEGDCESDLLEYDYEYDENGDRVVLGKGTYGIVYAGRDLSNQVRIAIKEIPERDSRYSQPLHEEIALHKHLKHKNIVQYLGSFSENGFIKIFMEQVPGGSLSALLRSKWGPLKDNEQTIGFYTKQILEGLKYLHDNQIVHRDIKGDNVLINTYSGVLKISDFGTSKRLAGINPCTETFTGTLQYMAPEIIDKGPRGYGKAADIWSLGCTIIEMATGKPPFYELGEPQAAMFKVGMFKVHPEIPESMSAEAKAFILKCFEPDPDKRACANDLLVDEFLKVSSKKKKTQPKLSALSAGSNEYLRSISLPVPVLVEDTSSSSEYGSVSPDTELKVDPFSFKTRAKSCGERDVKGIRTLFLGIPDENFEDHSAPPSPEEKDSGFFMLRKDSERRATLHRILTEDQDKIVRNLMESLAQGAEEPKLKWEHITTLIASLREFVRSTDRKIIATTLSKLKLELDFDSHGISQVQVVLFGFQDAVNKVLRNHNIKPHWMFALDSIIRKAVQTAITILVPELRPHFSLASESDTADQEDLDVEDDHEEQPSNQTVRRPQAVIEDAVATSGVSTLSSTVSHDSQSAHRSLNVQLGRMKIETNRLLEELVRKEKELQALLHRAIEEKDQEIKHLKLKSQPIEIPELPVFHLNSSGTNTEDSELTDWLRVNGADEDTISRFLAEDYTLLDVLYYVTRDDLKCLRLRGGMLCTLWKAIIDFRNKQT
Sequence of ZAP70 (P43403 whole entry): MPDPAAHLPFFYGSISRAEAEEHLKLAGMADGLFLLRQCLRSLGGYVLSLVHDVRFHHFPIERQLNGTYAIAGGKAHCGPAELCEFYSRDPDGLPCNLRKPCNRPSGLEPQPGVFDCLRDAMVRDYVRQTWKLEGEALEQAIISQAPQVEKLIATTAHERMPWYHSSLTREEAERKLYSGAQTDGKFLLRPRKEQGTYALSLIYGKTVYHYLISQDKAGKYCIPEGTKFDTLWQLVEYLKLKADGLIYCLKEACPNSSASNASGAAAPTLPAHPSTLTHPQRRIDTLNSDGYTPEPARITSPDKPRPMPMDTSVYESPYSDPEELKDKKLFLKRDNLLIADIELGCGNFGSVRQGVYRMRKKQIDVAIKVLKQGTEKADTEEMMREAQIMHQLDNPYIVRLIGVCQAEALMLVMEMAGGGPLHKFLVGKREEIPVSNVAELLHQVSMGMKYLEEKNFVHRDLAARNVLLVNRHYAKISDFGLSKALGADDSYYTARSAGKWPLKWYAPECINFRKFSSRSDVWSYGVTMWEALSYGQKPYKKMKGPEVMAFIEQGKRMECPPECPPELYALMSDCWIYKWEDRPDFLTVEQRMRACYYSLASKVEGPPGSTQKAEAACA
Sequence of MST4 (Q9P289 whole entry): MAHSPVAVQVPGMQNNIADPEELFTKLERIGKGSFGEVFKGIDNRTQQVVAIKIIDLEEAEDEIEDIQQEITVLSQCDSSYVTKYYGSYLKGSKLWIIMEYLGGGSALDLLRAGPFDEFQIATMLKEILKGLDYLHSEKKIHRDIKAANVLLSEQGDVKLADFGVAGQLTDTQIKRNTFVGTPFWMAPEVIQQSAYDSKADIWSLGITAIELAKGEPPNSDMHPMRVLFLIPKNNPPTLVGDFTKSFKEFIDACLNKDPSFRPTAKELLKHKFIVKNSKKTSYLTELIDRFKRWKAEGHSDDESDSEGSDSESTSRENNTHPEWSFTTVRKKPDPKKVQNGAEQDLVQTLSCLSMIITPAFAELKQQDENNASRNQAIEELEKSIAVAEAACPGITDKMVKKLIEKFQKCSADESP
Sequence of NEK2 (P51955 whole entry): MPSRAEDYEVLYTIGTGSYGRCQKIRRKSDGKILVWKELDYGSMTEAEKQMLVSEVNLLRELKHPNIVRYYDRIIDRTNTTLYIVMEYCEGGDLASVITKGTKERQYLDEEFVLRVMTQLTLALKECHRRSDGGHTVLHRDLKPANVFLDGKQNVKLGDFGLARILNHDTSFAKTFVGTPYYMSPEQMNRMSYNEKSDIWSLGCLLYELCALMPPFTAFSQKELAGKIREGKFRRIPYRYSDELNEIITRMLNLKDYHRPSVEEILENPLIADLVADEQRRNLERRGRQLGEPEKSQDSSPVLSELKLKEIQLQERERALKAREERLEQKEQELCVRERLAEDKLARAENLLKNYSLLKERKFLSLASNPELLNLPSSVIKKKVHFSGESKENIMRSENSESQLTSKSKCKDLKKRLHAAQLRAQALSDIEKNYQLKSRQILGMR
Sequence of ARK5 (O60285 whole entry): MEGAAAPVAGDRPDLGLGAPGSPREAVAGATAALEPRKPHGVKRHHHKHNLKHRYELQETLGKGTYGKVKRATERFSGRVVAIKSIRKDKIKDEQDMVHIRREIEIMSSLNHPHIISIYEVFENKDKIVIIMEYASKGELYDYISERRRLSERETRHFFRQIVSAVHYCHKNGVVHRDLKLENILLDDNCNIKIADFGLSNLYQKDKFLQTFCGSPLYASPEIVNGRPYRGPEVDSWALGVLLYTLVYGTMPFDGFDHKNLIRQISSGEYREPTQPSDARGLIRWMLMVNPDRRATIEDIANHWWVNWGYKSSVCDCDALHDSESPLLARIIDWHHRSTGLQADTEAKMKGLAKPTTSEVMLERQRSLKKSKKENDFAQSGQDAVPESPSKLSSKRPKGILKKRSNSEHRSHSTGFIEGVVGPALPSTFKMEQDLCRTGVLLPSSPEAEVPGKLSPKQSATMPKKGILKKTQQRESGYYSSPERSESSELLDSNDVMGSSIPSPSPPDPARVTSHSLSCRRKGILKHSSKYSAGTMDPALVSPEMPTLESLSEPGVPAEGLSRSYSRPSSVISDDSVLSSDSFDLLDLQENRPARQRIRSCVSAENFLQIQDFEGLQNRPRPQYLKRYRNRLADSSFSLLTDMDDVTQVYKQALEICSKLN
Sequence of TGFBR2 (P37173 whole entry): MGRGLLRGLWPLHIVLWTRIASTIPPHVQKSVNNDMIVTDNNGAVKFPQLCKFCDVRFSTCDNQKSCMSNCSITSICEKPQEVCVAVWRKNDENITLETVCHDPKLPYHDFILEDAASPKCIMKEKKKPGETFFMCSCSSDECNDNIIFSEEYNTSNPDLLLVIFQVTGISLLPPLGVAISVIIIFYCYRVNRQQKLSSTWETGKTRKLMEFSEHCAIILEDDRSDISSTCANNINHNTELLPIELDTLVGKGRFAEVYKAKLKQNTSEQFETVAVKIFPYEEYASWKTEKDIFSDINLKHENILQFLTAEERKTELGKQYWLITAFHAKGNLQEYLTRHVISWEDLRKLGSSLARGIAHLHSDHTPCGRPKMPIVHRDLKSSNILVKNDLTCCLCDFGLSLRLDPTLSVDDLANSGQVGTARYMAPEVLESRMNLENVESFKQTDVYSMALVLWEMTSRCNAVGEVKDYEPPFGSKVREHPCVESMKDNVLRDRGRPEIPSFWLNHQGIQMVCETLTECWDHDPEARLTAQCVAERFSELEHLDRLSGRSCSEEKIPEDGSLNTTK
Sequence of CDK5 (Q00535 whole entry): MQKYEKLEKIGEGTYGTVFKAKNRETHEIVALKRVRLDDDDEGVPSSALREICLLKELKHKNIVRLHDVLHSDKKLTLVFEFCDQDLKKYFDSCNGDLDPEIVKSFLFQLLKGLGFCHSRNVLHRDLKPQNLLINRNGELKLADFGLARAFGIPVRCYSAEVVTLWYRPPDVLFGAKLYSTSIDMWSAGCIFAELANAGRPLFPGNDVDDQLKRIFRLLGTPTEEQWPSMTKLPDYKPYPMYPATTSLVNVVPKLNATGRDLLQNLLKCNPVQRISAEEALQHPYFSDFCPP
Sequence of CDK6 (Q00534 whole entry): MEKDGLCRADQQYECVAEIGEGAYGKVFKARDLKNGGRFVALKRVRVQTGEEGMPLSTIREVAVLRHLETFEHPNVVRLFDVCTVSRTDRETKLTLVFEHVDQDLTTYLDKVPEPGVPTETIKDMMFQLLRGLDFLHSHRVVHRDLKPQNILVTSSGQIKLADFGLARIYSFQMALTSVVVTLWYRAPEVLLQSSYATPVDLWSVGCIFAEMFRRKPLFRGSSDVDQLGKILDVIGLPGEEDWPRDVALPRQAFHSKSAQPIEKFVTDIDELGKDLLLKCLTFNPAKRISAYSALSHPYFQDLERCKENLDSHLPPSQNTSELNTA
Sequence of NEK6 (Q9HC98 whole entry): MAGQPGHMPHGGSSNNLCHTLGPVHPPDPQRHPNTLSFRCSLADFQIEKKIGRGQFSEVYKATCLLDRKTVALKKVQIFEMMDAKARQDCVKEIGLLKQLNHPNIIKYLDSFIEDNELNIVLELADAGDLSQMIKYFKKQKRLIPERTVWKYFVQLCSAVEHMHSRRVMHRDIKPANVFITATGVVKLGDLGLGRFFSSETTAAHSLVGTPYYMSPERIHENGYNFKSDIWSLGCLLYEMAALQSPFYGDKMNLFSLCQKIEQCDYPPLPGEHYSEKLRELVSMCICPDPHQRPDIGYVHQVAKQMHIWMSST

O=C1NCCCCCNc2nc(c3ccccc3n2)Nc2cc1[nH]n2 [21c, (Z)-3^1H-2,5,11-triaza-1(4,2)-quinazolina-3(3,5)-pyrazolacycloundecaphan-4-one]
21c Remaining activity, percent of control [%] (ZAP70): 108.6% | 21c Remaining activity, percent of control [%] (ROCK2): 89.7% | 21c Remaining activity, percent of control [%] (PRKG2): 93.5% | 21c Remaining activity, percent of control [%] (MARK2): 98.8% | 21c Remaining activity, percent of control [%] (SRPK2): 97.0% | 21c Remaining activity, percent of control [%] (TSK2): 93.8% | 21c Remaining activity, percent of control [%] (CHK1): 112.0% | 21c Remaining activity, percent of control [%] (CDK5): 101.3% | 21c Remaining activity, percent of control [%] (TGFBR2): 81.8% | 21c Remaining activity, percent of control [%] (PDK1): 99.5% | 21c Remaining activity, percent of control [%] (ARK5): 86.3% | 21c Remaining activity, percent of control [%] (NEK2): 93.5% | 21c Remaining activity, percent of control [%] (CK1g3): 100.8% | 21c Remaining activity, percent of control [%] (DNAPK): 100.7% | 21c Remaining activity, percent of control [%] (FGFR2): 79.5% | 21c Remaining activity, percent of control [%] (ASK1): 97.7% | 21c Remaining activity, percent of control [%] (TTK): 97.7% | 21c Remaining activity, percent of control [%] (MST4): 18.0% | 21c Remaining activity, percent of control [%] (DYRK1A): 82.2% | 21c Remaining activity, percent of control [%] (EPHA5): 98.4% | 21c Remaining activity, percent of control [%] (DAPK3): 107.0% | 21c Remaining activity, percent of control [%] (SNARK): 95.6% | 21c Remaining activity, percent of control [%] (WNK1): 94.9% | 21c Remaining activity, percent of control [%] (DYRK2): 91.4% | 21c Remaining activity, percent of control [%] (PRKG1): 94.8% | 21c Remaining activity, percent of control [%] (NDR2): 93.9% | 21c Remaining activity, percent of control [%] (YES): 81.2% | 21c Remaining activity, percent of control [%] (NEK6): 89.5% | 21c Remaining activity, percent of control [%] (CDK6): 105.2% | 21c Remaining activity, percent of control [%] (JAK3): 115.4% | 21c Remaining activity, percent of control [%] (STK25): 57.2%
